Data taken from US10472635B2, “Methods of treating brain edema” (priority 2015, dated 2019).

What was measured:
[1] = test system: rat hippocampal slices; assay: LDH release cell death assay in hippocampal slices; assay type: cell-based
[2] = test system: VRAC; conditions: cited from earlier work
[3] = test system: cortical neurons in brain slices; assay: Neuronal swelling imaging assay in brain slices (cross sectional area of CoroNa-stained soma, two-photon); assay type: cell-based, rat
[4] = test system: neuronal [Na^+]i in brain slices; assay: Neuronal [Na+]i by CoroNa Green fluorescence / two-photon FLIM; assay type: cell-based, rat; conditions: CoroNa signal; TTX 1 μM; DIDS 250 μM
[5] = test system: voltage-dependent Cl^− current in layer 4 cortical neurons; assay: Whole-cell voltage clamp of depolarization-activated Cl- current; assay type: cell-based, rat; conditions: depolarization to −20 mV or greater; cocktail of channel blockers; GlyH-101 by dialysis
Method: Electrophysiology: Whole-cell recordings were performed in the presence of antagonists of GABAA (10 μM picrotoxin), AMPA/kainite (10 μM 6-cyano-7-nitoquinoxaline-2,3-dione—CNQX), and NMDA (2R-amino-5-phosphonovaleric acid—APV) receptors. 60 μM cadmium, 50 μM nickel and 100 μM 4AP (4-aminopyridine) were used to block voltage-gated calcium channels and A-type potassium channels. Whole-cell voltage-clamp recordings from cortical neurons were carried out at room temperature while the recording chamber was perfused with ACSF at 1-1.5 ml min-1. Recordings were made using a MultiClamp 700B amplifier controlled by Clampex 10.2 via a Digidata 1440A data acquisition system with 3-5M ? glass electrodes. The pipette solution containing (in m ? ): 108 CsCl, 8 TEA-Cl, 8 NaGluc, 1 CsEGTA, 4 K-ATP, 0.3 Na-GTP, 10 Hepes, 2MgCl2 (pH 7.2 with CsOH, 286 mosmol 1-1). Normal ACSF contained (in mM): 126 NaCl, 26 NaHCO3, 10 glucose, 2 MgCl2, 1.25 NaH2PO4, 2.5 KCl, 2.0 CaCl2 (pH 7.25, 310 mosmol 1-1). NaCl was replaced with 126 mM Na-isethionate in the low-chloride ACSF. Recordings where the series resistance varied more than 10% were rejected. Data were analyzed with Clampfit 10.0.
The opening of Na^+ permeable channels causes both [Na^+]i accumulation and neuronal depolarization. […] However progressive accumulation of extracellular K^+ could lead to further depolarization of the membrane. […]

[6] = test system: SLC4-A3, A8, A10; conditions: cited from earlier work
[7] = test system: Maxi-Anion Channel; conditions: cited from earlier work
[8] = molecular target: T1, SLC26A11 (Homo sapiens, UniProt Q86WA9); conditions: cited from earlier work
T1 sequence (Q86WA9 1-606): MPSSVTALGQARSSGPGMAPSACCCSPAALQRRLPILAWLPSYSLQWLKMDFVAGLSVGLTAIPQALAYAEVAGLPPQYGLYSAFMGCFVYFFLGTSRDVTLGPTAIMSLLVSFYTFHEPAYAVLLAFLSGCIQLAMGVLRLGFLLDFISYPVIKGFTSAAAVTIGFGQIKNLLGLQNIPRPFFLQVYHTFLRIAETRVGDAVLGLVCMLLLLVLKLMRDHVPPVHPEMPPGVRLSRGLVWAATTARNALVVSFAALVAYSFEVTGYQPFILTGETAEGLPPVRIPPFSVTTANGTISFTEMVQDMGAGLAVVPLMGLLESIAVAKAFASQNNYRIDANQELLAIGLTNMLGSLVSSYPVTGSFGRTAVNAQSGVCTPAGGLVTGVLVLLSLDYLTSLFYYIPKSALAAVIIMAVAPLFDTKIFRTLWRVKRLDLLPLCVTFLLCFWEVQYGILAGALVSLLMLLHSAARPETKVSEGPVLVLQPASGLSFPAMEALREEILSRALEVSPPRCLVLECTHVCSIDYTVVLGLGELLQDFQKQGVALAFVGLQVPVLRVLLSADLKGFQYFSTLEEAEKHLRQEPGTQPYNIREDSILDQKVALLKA

**Q.** Which results are given for `O=S(=O)(O)c1cc(N=C=S)ccc1C=Cc1ccc(N=C=S)cc1S(=O)(=O)O` [DIDS]?
**A.** effect on veratridine-induced cell death (LDH release) ([1]; 50 μM veratridine): prevented cell death; effect on NMDA-induced cell death (LDH release), Ca2+-independent ([1]; NMDA in Ca2+ free extracellular solution): blocked; effect on NMDA-induced cell death (LDH release), Ca2+-dependent ([1]; NMDA with extracellular Ca2+ present, reduced extracellular Na+): not blocked; concentration (antagonist sensitivity of channel/transporter) [2]: 100 to 400 µM; effect on veratridine-induced neuronal swelling ([3]; 22-24 °C, antagonist bath applied and in puffing pipette, DIDS 250 μM, NPPB 200 μM, TTX 1 μM): reduced the swelling; effect on veratridine-stimulated neuronal swelling at 37 °C ([3]; 37 °C, Calcein green-AM): block; effect on NMDA-induced neuronal swelling ([3]; DIDS 250 μM, 500 μM, 1 mM, d-APV 100 μM): blocked NMDA-evoked neuronal swelling in a dose-dependent manner; effect on veratridine-induced [Na+]i increase [4]: not affected; effect on non-inactivating Cl- current elicited by depolarization [5]: blocked; concentration (antagonist sensitivity of channel/transporter) [6]: 0.1 to 0.5 mM; concentration (antagonist sensitivity of channel/transporter) [7]: 100 µM; concentration (antagonist sensitivity of channel/transporter) [8]: 0.5 to 1 mM
